# Measured values taken from ChEMBL document CHEMBL5154923 (J Med Chem, 2022).
# Tests used:
# [1] = biological target: T1, Serine/threonine-protein kinase 17A (Homo sapiens, UniProt Q9UEE5); assay: Inhibition of human N-terminal His-tagged/ TEV cleavage fused DRAK1 (39 to 369 residues) transfected in HEK293T cells using NanoBRET NanoGlo as substrate incubated for 2 hrs by NanoBRET assay; assay type: cell-based
# T1 sequence (Q9UEE5 whole entry): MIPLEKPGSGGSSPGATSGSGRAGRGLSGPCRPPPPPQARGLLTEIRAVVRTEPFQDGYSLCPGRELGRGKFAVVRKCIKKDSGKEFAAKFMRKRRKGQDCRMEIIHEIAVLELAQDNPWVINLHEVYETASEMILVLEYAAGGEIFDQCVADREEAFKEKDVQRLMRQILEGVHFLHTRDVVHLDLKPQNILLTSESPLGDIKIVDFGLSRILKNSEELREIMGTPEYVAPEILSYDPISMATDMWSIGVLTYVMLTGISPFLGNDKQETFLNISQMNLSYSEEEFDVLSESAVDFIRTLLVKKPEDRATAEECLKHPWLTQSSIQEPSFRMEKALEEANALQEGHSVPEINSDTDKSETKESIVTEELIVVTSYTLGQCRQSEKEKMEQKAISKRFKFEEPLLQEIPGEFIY
# [2] = biological target: Casein kinase II subunit alpha (Homo sapiens, UniProt P68400); assay: Binding affinity to wild type full length human CK2alpha1 (1 to 391 residues) expressed in mammalian expression system assessed as change in melting temperature at 10 uM by SYPRO orange dye based DSF assay
# [3] = biological target: T1, Serine/threonine-protein kinase 17A; assay: Inhibition of human N-terminal His-tagged/ TEV cleavage fused DRAK1 (39 to 369 residues) expressed in Escherichia coli using KKLNRTLSFAEPG peptide as substrate in presence of [gamma-33P]ATP by radiometric based scintillation proximity assay
# [4] = biological target: T2, Serine/threonine-protein kinase 17A (Homo sapiens) (UniProt Q9UEE5); assay: Binding affinity to human N-terminal His-tagged/ TEV cleavage fused DRAK1 (39 to 369 residues) expressed in Escherichia coli assessed as change in melting temperature at 10 uM by SYPRO orange dye based DSF assay
# T2 sequence (whole entry): T1 sequence (Q9UEE5 whole entry)
# [5] = Binding affinity to wild type full length human CK2alpha2 (1 to 350 residues) expressed in mammalian expression system assessed as change in melting temperature by SYPRO orange dye based DSF assay
# Casein kinase II subunit alpha, sequence (P68400 whole entry, looked up, the tested form may be a part): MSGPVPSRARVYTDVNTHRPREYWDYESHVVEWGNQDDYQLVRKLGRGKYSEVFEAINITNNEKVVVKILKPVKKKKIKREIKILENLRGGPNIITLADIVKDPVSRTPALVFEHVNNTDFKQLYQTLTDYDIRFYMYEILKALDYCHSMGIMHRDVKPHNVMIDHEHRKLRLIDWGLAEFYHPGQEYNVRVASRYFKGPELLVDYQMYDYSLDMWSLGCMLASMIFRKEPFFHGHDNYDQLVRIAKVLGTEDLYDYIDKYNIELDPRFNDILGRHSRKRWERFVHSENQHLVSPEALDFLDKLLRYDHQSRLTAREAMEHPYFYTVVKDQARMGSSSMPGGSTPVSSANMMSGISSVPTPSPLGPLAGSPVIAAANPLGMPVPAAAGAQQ
SMILES,IC50 [1],ΔTm [2],IC50 [3],ΔTm [4],ΔTm [5]
O=C(NCc1ccccc1)c1ccc2cc1OCCOCCNc1ccn3ncc-2c3n1,0.171 µM,1.7 °C,0.155 µM,9.3 °C,4.9 °C
CN1CCN(C(=O)c2ccc3cc2OCCOCCNc2ccn4ncc-3c4n2)CC1,> 45 µM,0.3 °C,–,–,0.9 °C
O=C(O)c1ccc2cc1OCCOCCNc1ccn3ncc-2c3n1,–,10.6 °C,–,7.9 °C,11.3 °C
